Reference: patent US11779572B1, “Methods of treating gastrointestinal stromal tumors” (Deciphera Pharmaceuticals, LLC, priority 2022, dated 2023)

Test system: advanced GIST
Assay: Randomized, double-blind, placebo-controlled study of ripretinib in advanced GIST (Example 1): efficacy
Assay type: in vivo, human
Procedure: Patients were randomized 2:1 to either 150 mg of ripretinib or placebo once daily. The primary efficacy endpoint is progression-free survival (PFS) as determined by independent radiologic review using modified Response Evaluation Criteria in Solid Tumors (RECIST). Secondary endpoints as determined by independent radiologic review using modified RECIST include Objective Response Rate (ORR), Time to Tumor Progression (TTP) and Overall Survival (OS).
Results. This study achieved its primary endpoint of improved PFS as determined by blinded independent central radiologic review using modified Response Evaluation Criteria in Solid Tumors (RECIST) version 1.1.
Patients whose disease progressed during the double blind phase of the study were escalated to 150 mg BID ripretinib, continued at the 150 mg QD dose, or discontinued in an open label-phase of the study.

[1] = patients crossed over from placebo to ripretinib

CCn1c(=O)c(-c2cc(NC(=O)Nc3ccccc3)c(F)cc2Br)cc2cnc(NC)cc21 [ripretinib]
benefit over placebo (PFS, OS), primary Exon 11 and Exon 9 mutation (150 mg QD, FIG. 17): derive a benefit | OS rate at 12 months (150 mg once daily): 65.4% | PFS rate at 6 months (150 mg once daily): 51% | reduction of risk of disease progression or death compared to placebo (150 mg once daily): 85% | median PFS (150 mg once daily, initial ripretinib arm): 27.6 weeks | median PFS (150 mg once daily, BICR, modified RECIST 1.1, double-blind cut): 6.3 months | median PFS (150 mg once daily, BICR, modified RECIST 1.1, double-blind cut, listed as Ripretinib): 6.3 (4.6, 6.9) months | PFS compared to placebo in subgroups with Exon 9, 11, 13 or 17 KIT mutations (FIG. 26A-D): PFS benefit in all assessed patient subgroups | Overall survival: number of deaths (%) (double-blind cut): 26 (31) | PFS by BICR: deaths, number (%) (double-blind cut): 5 (6) | PFS by BICR: number of events (%) (double-blind cut): 51 (60) | PFS by BICR: progressive disease, number (%) (double-blind cut): 46 (54) | objective/overall response rate by BICR (modified RECIST 1.1, double-blind cut): 9.4% | objective/overall response rate by BICR (modified RECIST 1.1, double-blind cut, listed as Ripretinib): 9% | Median OS (95% CI) (open-label cut): Not Reached | Median PFS (95% CI) (open-label cut): 6.3 (4.6, 8.1) months | Overall Response Rate by BICR (open-label cut): 12% | Overall survival: number of deaths (%) (open-label cut): 38 (45) | PFS by BICR: deaths, number (%) (open-label cut): 6 (7) | PFS by BICR: number of events (%) (open-label cut): 64 (75) | PFS by BICR: progressive disease, number (%) (open-label cut): 58 (68) | median OS [1]: 11.6 months | median PFS [1]: 20.0 weeks | median OS (patients initially randomized to ripretinib, double-blind cut): 15.1 months | median OS (patients initially randomized to ripretinib, double-blind cut, listed as Ripretinib): 15 (12, 15) months
